Measured values: patent US11254652B2, “Crystalline forms of N-(4-(4-(cyclopropymethyl)piperazine-1-carbonyl)phenyl)quinoline-8-sulfonamide” (Agios Pharmaceuticals, Inc., priority 2017, dated 2022)

Assays:
[1] = Solubility in MeOH:Water by slow heating to dissolve at fixed solvent volume; assay type: physicochemical; details: organic solvent or mixture, thermodynamic from solid
Experimental: Three solvent compositions were used as MeOH:Water (99:1 vol), (98:2) and (95:5). About 25 mg of Form A was weighed into 2 mL vial and 6 volume solvent was added, then slowly heated to dissolve. For experiment with 5% water, an additional test was conducted with 8 vol solvents.

[2] = Dynamic Vapor Sorption (DVS); assay type: physicochemical
Experimental: Dynamic Vapor Sorption (DVS) was done using a DVS Intrinsic 1. The sample is loaded into a sample pan and suspended from a microbalance. A typical sample mass for DVS measurement is 25 mg. Nitrogen gas bubbled through distilled water provides the desired relative humidity. A typical measurement comprises the steps: • 1. Equilibrate at 50% RH • 2. 50% to 2%. (50%, 40%, 30%, 20%, 10% and 2%) • a. Hold minimum of 5 mins and maximum of 60 minutes at each humidity. The pass criteria is less than 0.002% change • 3. 2% to 95% (2%, 10%, 20%, 30%, 40%, 50%, 60%, 70%, 80%, 90%, 95%) • b. Hold minimum of 5 mins and maximum of 60 minutes at each humidity. The pass criteria is less than 0.002% change • 4. 95% to 2% (95%, 80%, 70%, 60%, 50%, 40%, 30%, 20%, 10%, 2%) • c. Hold minimum of 5 mins and maximum of 60 minutes at each humidity. The pass criteria is less than 0.002% change • 5. 2% to 50% (2%, 10%, 20%, 30%, 40%, 50%) • d. Hold minimum of 5 mins and maximum of 60 minutes at each humidity. The pass criteria is less than 0.002% change
The water content by Karl Fisher was about 5.3%. […] A DVS isotherm taken at 40° C. was essentially the same as the one at 25° C. […] Humidity test was conducted on Form A with exposure to 11%, 48%, and 75% relative humidity at 40° C. for 2 weeks followed by XRPD analysis. […] Crystallographic data for Form A is as follows:
Form B tends to hold substantial amount of solvent.
Form D was determined to be anhydrous with a melting peak at 239° C. See e.g., FIG. 9. DVS of Pattern D was performed and solid picked up about 2% moisture from 2% to 95% relative humidity.

For O=C(c1ccc(NS(=O)(=O)c2cccc3cccnc23)cc1)N1CCN(CC2CC2)CC1 [Form A, 1-(cyclopropylmethyl)-4-(4-(quinoline-8-sulfonamido)benzoyl)piperazin-1-ium hemisulfate sesquihydrate], the Solubility ([1]; MeOH:Water (95:5), 6 vol, temperature when dissolution 60 ° C.) was 167 mg/mL, the Solubility ([1]; MeOH:Water (95:5), 8 vol, temperature when dissolution 50 ° C.) was 125 mg/mL and the Solubility ([1]; MeOH:Water (98:2), 6 vol, temperature when dissolution 35 ° C.) was 167 mg/mL. For the same compound, the Solubility ([1]; MeOH:Water (99:1), 6 vol, temperature when dissolution 23 ° C.) was > 167 mg/mL, the “moisture picked up in DVS” value ([2]; 25° C., from 2% to 95% relative humidity) was “about 1.3%” and the “XRPD after DVS” value ([2]; Form A: DVS at 25° C. and 40° C., hemisulfate sesquihydrate) was “remained unchanged”.
